# Measurements taken from article PMC7377239, “Cardiovascular Effects of Polychlorinated Biphenyls and Their Major Metabolites” (Environmental Health Perspectives, 2020).
# Counter-ions that a name gives are not always drawn. Like-named read-outs stand apart in the source and are kept apart here.
# Assays:
# HUVECs = assay: High-content imaging cytotoxicity in HUVECs, 24 h; assay type: cell-based, human; conditions: Homo sapiens, HUVEC, 24 h, HUVECs; for viability at 0.01 µM / activity at 0.01 µM / viability at 0.1 µM / activity at 0.1 µM / viability at 1 µM / activity at 1 µM / viability at 10 µM / activity at 10 µM / viability at 100 µM / activity at 100 µM: 0.00 µM = 100.00; for viability at 0.1 µM / activity at 0.1 µM: 0.10 µM; for minimal effective concentration: top concentration 100.00 µM
# Summary of the method: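 Point-of-departure values derive from four-parameter logistic fits of vehicle-normalized imaging phenotypes (Hoechst 33342, MitoTracker Orange, calcein AM). The fits follow 24 h exposure of HUVEC monolayers at 37°C and 5% CO2, with a top tested concentration of 100μM.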
# [1] = test system: iCell endothelial cells (human iPSC-derived ECs); assay: High-content imaging cytotoxicity in iCell endothelial cells, 24 h; assay type: cell-based; conditions: Homo sapiens, Endothelial cell, iPSC-EC, 24 hr; for viability at 0.1 µM / activity at 0.1 µM: 0.10 µM; for minimal effective concentration: top concentration 100.00 µM
# Summary of the method: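 Human iPSC-derived endothelial cells (passages 1–5) were grown to a fibronectin-coated monolayer, then exposed 24 h at 37 °C with 0.5% DMSO vehicle. Staining was Hoechst 33342, MitoTracker Orange and calcein AM, read by high-content imaging. Point of departure came from 4-parameter logistic fits, with a 1-SD vehicle cutoff and 100 µM as the top concentration.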
# [2] = 24 hr, read-out: huvec.cyto.24hr
# [3] = 24 hr, read-out: huvec.mito.24hr
# [4] = 24 hr, read-out: huvec.mitoint.24hr
# [5] = 24 hr, read-out: huvec.nma.24hr
# [6] = 24 hrs, read-out: huvec.tc.24hrs
# [7] = 0.00 µM control = 100.00, read-out: endo.cyto.24hr
# [8] = 0.00 µM control = 100.00, read-out: endo.mito.24hr
# [9] = 0.00 µM control = 100.00, read-out: endo.mitoint.24hr
# [10] = 0.00 µM control = 100.00, read-out: endo.nma.24hr
# [11] = 0.00 µM control = 100.00, read-out: endo.tc.24hrs
smiles,measurement,setting,value
O=S(=O)(O)Oc1ccc(-c2ccc(Cl)cc2)cc1 [4'-yl PCB 3 sulfate],viability at 0.01 µM,HUVECs; [2],98.5%
same,activity at 0.01 µM,HUVECs; [3],97.5%
same,activity at 0.01 µM,HUVECs; [4],90.2%
same,activity at 0.01 µM,HUVECs; [5],99%
same,viability at 0.1 µM,HUVECs; [2],90.8%
same,activity at 0.1 µM,HUVECs; [3],89.7%
same,activity at 0.1 µM,HUVECs; [4],109%
same,activity at 0.1 µM,HUVECs; [5],102%
same,viability at 1 µM,HUVECs; [2],87.4%
same,activity at 1 µM,HUVECs; [3],86.3%
same,activity at 1 µM,HUVECs; [4],97.9%
same,activity at 1 µM,HUVECs; [5],100%
same,viability at 10 µM,HUVECs; [2],103%
same,activity at 10 µM,HUVECs; [3],103%
same,activity at 10 µM,HUVECs; [4],83.8%
same,activity at 10 µM,HUVECs; [5],97.1%
same,viability at 100 µM,HUVECs; [2],88.9%
same,activity at 100 µM,HUVECs; [3],87.6%
same,activity at 100 µM,HUVECs; [4],114%
same,activity at 100 µM,HUVECs; [5],97.7%
same,minimal effective concentration,"HUVECs; 24 hr, read-out: huvec.cyto.24hr POD",100 µM
same,minimal effective concentration,"HUVECs; 24 hr, read-out: huvec.mito.24hr POD",100 µM
same,minimal effective concentration,"HUVECs; 24 hr, read-out: huvec.mitoint.24hr POD",100 µM
same,minimal effective concentration,"HUVECs; 24 hr, read-out: huvec.nma.24hr POD",100 µM
same,viability at 0.01 µM,HUVECs; [6],98.5%
same,viability at 0.1 µM,HUVECs; [6],90.8%
same,viability at 1 µM,HUVECs; [6],87.4%
same,viability at 10 µM,HUVECs; [6],103%
same,viability at 100 µM,HUVECs; [6],88.9%
same,minimal effective concentration,"HUVECs; 24 hrs, read-out: huvec.tc.24hrs POD",100 µM
same,viability at 0.01 µM,[1]; [7],101%
same,activity at 0.01 µM,[1]; [8],101%
same,activity at 0.01 µM,[1]; [9],114%
same,activity at 0.01 µM,[1]; [10],99.9%
same,viability at 0.01 µM,[1]; [11],101%
same,viability at 0.1 µM,[1]; [7],101%
same,activity at 0.1 µM,[1]; [8],101%
same,activity at 0.1 µM,[1]; [9],103%
same,activity at 0.1 µM,[1]; [10],99.6%
same,viability at 0.1 µM,[1]; [11],101%
same,viability at 1 µM,[1]; [7],101%
same,activity at 1 µM,[1]; [8],101%
same,activity at 1 µM,[1]; [9],100%
same,activity at 1 µM,[1]; [10],98.8%
same,viability at 1 µM,[1]; [11],101%
same,viability at 10 µM,[1]; [7],101%
same,activity at 10 µM,[1]; [8],102%
same,activity at 10 µM,[1]; [9],98%
same,activity at 10 µM,[1]; [10],98.8%
same,viability at 10 µM,[1]; [11],101%
same,viability at 100 µM,[1]; [7],91.5%
same,activity at 100 µM,[1]; [8],91.9%
same,activity at 100 µM,[1]; [9],106%
same,activity at 100 µM,[1]; [10],104%
same,viability at 100 µM,[1]; [11],91.5%
same,minimal effective concentration,[1]; read-out: endo.cyto.24hr POD,100 µM
same,minimal effective concentration,[1]; read-out: endo.mito.24hr POD,100 µM
same,minimal effective concentration,[1]; read-out: endo.mitoint.24hr POD,100 µM
same,minimal effective concentration,[1]; read-out: endo.nma.24hr POD,100 µM
same,minimal effective concentration,[1]; read-out: endo.tc.24hrs POD,100 µM
